Four molecules from patent US5135943A, “1H-imidazole derivative compounds and pharmaceutical compositions containing the same” (priority 1984, dated 1992) can be followed below.

In brackets after ≈: the same amount, converted by molar mass. Read-outs that look alike come from different tables or passages of the source.

As a reminder, the LD50 is the dose expected to kill half of the subjects tested. Read a high LD50 as lower toxicity. Usually MIC stands for the smallest concentration in the dilution series that meets the test's criterion for growth inhibition.

Data set [1] deals with Swiss mice. The conditions noted are these: mouse, in vivo.
Source text: (§3) Such signs included convulsions and Straub tail(vertical righting of the tail).
Another data set deals with C. albicans 14. Nature of the data set: MIC, comparative in vitro testing against Martin compounds. In kind it is cell-based. The conditions noted are these: Casitone medium. The method, then: (§1) Minimum Inhibitory Concentrations (MICS) of Sertaconazole were also measured in comparison to four of the compounds described in the Martin Patent, including a compound, referred to herein as Martin Compound 1, which has the same structure as Sertaconazole, expect that the sulfur in the benzothiophene ring is replaced by an oxygen.
(§2) The results of comparative in vitro testing of Sertaconazole and these four Martin compounds are shown in the following Table II against 16 microorganisms. The reading time is the time interval from the time of inoculation to the time of measurement.

For a further data set, the system named is C. albicans 15. The data set is described as above. The class given is cell-based. The conditions noted are these: Casitone medium. As to the method:
as §1, §2

The next data set concerns C. albicans 31. Described as above. The class given is cell-based. The conditions noted are these: Candida albicans, 31, YNB medium, read-out: MIC. The method, then: as §1, §2
For a further data set, the system named is C. albicans 32. The description is as above. The class given is cell-based. The conditions noted are these: Candida albicans, 32, YNB medium, read-out: MIC. The method, then:
as §1, §2

A further data set has as its system C. albicans ATCC E-10231. Described as above. In kind it is cell-based. The conditions noted are these: Candida albicans, ATCCE10231, Casitone medium, read-out: MIC. As to the method: as §1, §2
A further data set deals with C. guillermondii. The data set is described as above. The class given is cell-based. The conditions noted are these: read-out: MIC. As to the method: as §1, §2
Another data set relates to C. krusei 24. Described as above. The conditions noted are these: read-out: MIC. In kind it is cell-based. The method, then:
as §1, §2

Another data set has as its system C. parapsilosis 19. The data set is described as above. In kind it is cell-based. As to the method: as §1, §2
The next data set relates to C. pseudotropicalis 21. The data set is described as above. In kind it is cell-based. The conditions noted are these: Kluyveromyces marxianus, 21, Sabouraud medium, read-out: MIC. As to the method: as §1, §2
In another data set the test system is C. stellatoidea 36232. The data set is described as above. In kind it is cell-based. The method, then: as §1, §2
In the next data set the test system is C. tropicalis 25. The data set is described as above. In kind it is cell-based. The conditions noted are these: YNB medium. As to the method: as §1, §2
The next data set concerns 16 microorganisms. Nature of the data set: Geometric mean of all MIC measurements, comparative in vitro testing. The conditions noted are these: read-out: Geometric means of MIC. The class given is cell-based. As to the method:
as §1, §2

A further data set in a line: in vivo. The conditions noted are these: mouse, ip.
Data set [2] relates to Swiss mice. Nature of the data set: Acute toxicity in Swiss mice i.p. The conditions noted are these: for LD0: Swiss mice i.p.
Source text: as §3

Source text for in vivo: as §3

Regarding `Clc1ccc(C(Cn2ccnc2)OCc2csc3c(Cl)cccc23)c(Cl)c1` (centres unmarked) [Sertaconazole nitrate], in the data set on Swiss mice [1] (ip), the LD0 amounted to 2000 mg/kg and the 50% lethal dose (LD50) was determined as 8000 mg/kg.
On to `Clc1ccc(C(Cn2ccnc2)OCc2coc3cc(Cl)ccc23)c(Cl)c1` (centres unmarked) [Martin compound 2, reference compound], for which the MIC in the data set with C. albicans 14 (Candida albicans, 14, 48 h, reading time 48 h, SZ vs M2) came to 0.25 µg/mL (≈ 0.593 µM); in the data set with C. albicans 15 (Candida albicans, 15, 48 h, reading time 48 h, SZ vs M2), 0.06 µg/mL (≈ 0.142 µM); in the data set on C. albicans 31 (reading time 48 h, SZ vs M2), 4 µg/mL (≈ 9.49 µM); with C. albicans 32 (reading time 48 h, SZ vs M2) it was 4 µg/mL (≈ 9.49 µM); in the data set on C. albicans ATCC E-10231 (reading time 48 h, SZ vs M2) it was 0.5 µg/mL (≈ 1.19 µM); in the data set with C. guillermondii (48 h, Casitone medium, reading time 48 h, SZ vs M2), 0.5 µg/mL (≈ 1.19 µM). The MIC in the data set on C. guillermondii (48 h, YNB medium, reading time 48 h, SZ vs M2) is 0.5 µg/mL (≈ 1.19 µM); with C. krusei 24 (Pichia kudriavzevii, 24, 48 h, Casitone medium, reading time 48 h, SZ vs M2) it was 0.05 µg/mL (≈ 0.119 µM); with C. krusei 24 (Pichia kudriavzevii, 24, 48 h, YNB medium, reading time 48 h, SZ vs M2) it was 0.5 µg/mL (≈ 1.19 µM); in the data set on C. parapsilosis 19 (19, 48 h, Sabouraud medium, reading time 48 h, SZ vs M2) it was 1 µg/mL (≈ 2.37 µM); in the data set with C. parapsilosis 19 (19, 48 h, YNB medium, reading time 48 h, SZ vs M2), 1 µg/mL (≈ 2.37 µM); in the data set with C. pseudotropicalis 21 (reading time 48 h, SZ vs M2) it was 0.06 µg/mL (≈ 0.142 µM). Also, the MIC in the data set with C. stellatoidea 36232 (Candida albicans, 36232, 48 h, Casitone medium, reading time 48 h, SZ vs M2) amounted to 0.06 µg/mL (≈ 0.142 µM); against C. stellatoidea 36232 (Candida albicans, 36232, 48 h, Sabouraud medium, reading time 48 h, SZ vs M2) it was 0.5 µg/mL (≈ 1.19 µM); with C. stellatoidea 36232 (Candida albicans, 36232, 48 h, YNB medium, reading time 48 h, SZ vs M2), 1 µg/mL (≈ 2.37 µM); against C. tropicalis 25 (Candida tropicalis, 25, 48 h, reading time 48 h, SZ vs M2), 8 µg/mL (≈ 19 µM); with 16 microorganisms (48 h, SZ vs M2, reading time 48 h) it was 0.565 µg/mL (≈ 1.34 µM). The LD50 in the data set “in vivo” was found to be 640 mg/kg. In the data set with Swiss mice [2], the LD0 is 235 mg/kg.
With `Clc1ccc(C(Cn2ccnc2)OCc2coc3c(Cl)cccc23)c(Cl)c1` (centres unmarked) [Martin compound 1, reference compound], the MIC against C. albicans 14 (Candida albicans, 14, 60 h, reading time 60 h, SZ vs M1) came to 2 µg/mL (≈ 4.74 µM); against C. albicans 15 (Candida albicans, 15, 60 h, reading time 60 h, SZ vs M1) it was 1 µg/mL (≈ 2.37 µM); in the data set on C. albicans 31 (reading time 60 h, SZ vs M1), 8 µg/mL (≈ 19 µM); in the data set on C. albicans 32 (reading time 60 h, SZ vs M1), 8 µg/mL (≈ 19 µM); in the data set with C. albicans ATCC E-10231 (reading time 60 h, SZ vs M1), 2 µg/mL (≈ 4.74 µM); in the data set on C. guillermondii (60 h, Casitone medium, reading time 60 h, SZ vs M1), 0.5 µg/mL (≈ 1.19 µM). In addition, the minimal inhibitory concentration (MIC) in the data set with C. guillermondii (60 h, YNB medium, reading time 60 h, SZ vs M1) was 0.5 µg/mL (≈ 1.19 µM); with C. krusei 24 (Pichia kudriavzevii, 24, 60 h, Casitone medium, reading time 60 h, SZ vs M1), 1 µg/mL (≈ 2.37 µM); with C. krusei 24 (Pichia kudriavzevii, 24, 60 h, YNB medium, reading time 60 h, SZ vs M1), 0.25 µg/mL (≈ 0.593 µM); in the data set on C. parapsilosis 19 (19, 60 h, Sabouraud medium, reading time 60 h, SZ vs M1), 1 µg/mL (≈ 2.37 µM); in the data set on C. parapsilosis 19 (19, 60 h, YNB medium, reading time 60 h, SZ vs M1) it was 0.5 µg/mL (≈ 1.19 µM); in the data set with C. pseudotropicalis 21 (reading time 60 h, SZ vs M1) it was 0.03 µg/mL (≈ 0.0711 µM). Further, the MIC was found to be 0.5 µg/mL (≈ 1.19 µM) against C. stellatoidea 36232 (Candida albicans, 36232, 60 h, Casitone medium, reading time 60 h, SZ vs M1); 1 µg/mL (≈ 2.37 µM) with C. stellatoidea 36232 (Candida albicans, 36232, 60 h, Sabouraud medium, reading time 60 h, SZ vs M1); 4 µg/mL (≈ 9.49 µM) with C. stellatoidea 36232 (Candida albicans, 36232, 60 h, YNB medium, reading time 60 h, SZ vs M1); 8 µg/mL (≈ 19 µM) in the data set on C. tropicalis 25 (Candida tropicalis, 25, 60 h, reading time 60 h, SZ vs M1); 1.09 µg/mL (≈ 2.58 µM) with 16 microorganisms (60 h, SZ vs M1, reading time 60 h). This molecule also came in with an LD50 in the data set “in vivo” of 518 mg/kg. The molecule also had an LD0 in the data set on Swiss mice [2] of 285 mg/kg. For the same molecule, the “signs of intoxication in the central nervous system (convulsions and Straub tail)” value in the data set on Swiss mice [2] (mice) is on record as “evident signs of intoxication in the central nervous system”.
With `Clc1ccc(C(Cn2ccnc2)OCc2cc3cc(Cl)ccc3o2)c(Cl)c1` (centres unmarked) [Martin compound 3, reference compound], the MIC with C. albicans 14 (Candida albicans, 14, 48 h, reading time 48 h, SZ vs M3) worked out at 0.5 µg/mL (≈ 1.19 µM); against C. albicans 15 (Candida albicans, 15, 48 h, reading time 48 h, SZ vs M3), 0.06 µg/mL (≈ 0.142 µM); in the data set with C. albicans 31 (reading time 48 h, SZ vs M3), 4 µg/mL (≈ 9.49 µM); in the data set with C. albicans 32 (reading time 48 h, SZ vs M3), 4 µg/mL (≈ 9.49 µM); in the data set on C. albicans ATCC E-10231 (reading time 48 h, SZ vs M3), 0.5 µg/mL (≈ 1.19 µM); with C. guillermondii (48 h, Casitone medium, reading time 48 h, SZ vs M3), 0.25 µg/mL (≈ 0.593 µM). Moreover, the MIC was determined as 0.25 µg/mL (≈ 0.593 µM) in the data set with C. guillermondii (48 h, YNB medium, reading time 48 h, SZ vs M3); 0.125 µg/mL (≈ 0.296 µM) in the data set on C. krusei 24 (Pichia kudriavzevii, 24, 48 h, Casitone medium, reading time 48 h, SZ vs M3); 0.25 µg/mL (≈ 0.593 µM) with C. krusei 24 (Pichia kudriavzevii, 24, 48 h, YNB medium, reading time 48 h, SZ vs M3); 0.5 µg/mL (≈ 1.19 µM) against C. parapsilosis 19 (19, 48 h, Sabouraud medium, reading time 48 h, SZ vs M3); 1 µg/mL (≈ 2.37 µM) against C. parapsilosis 19 (19, 48 h, YNB medium, reading time 48 h, SZ vs M3); 0.03 µg/mL (≈ 0.0711 µM) with C. pseudotropicalis 21 (reading time 48 h, SZ vs M3). Besides, the MIC in the data set with C. stellatoidea 36232 (Candida albicans, 36232, 48 h, Casitone medium, reading time 48 h, SZ vs M3) was found to be 0.125 µg/mL (≈ 0.296 µM); in the data set on C. stellatoidea 36232 (Candida albicans, 36232, 48 h, Sabouraud medium, reading time 48 h, SZ vs M3) it was 0.5 µg/mL (≈ 1.19 µM); against C. stellatoidea 36232 (Candida albicans, 36232, 48 h, YNB medium, reading time 48 h, SZ vs M3), 4 µg/mL (≈ 9.49 µM); against C. tropicalis 25 (Candida tropicalis, 25, 48 h, reading time 48 h, SZ vs M3), 8 µg/mL (≈ 19 µM); in the data set on 16 microorganisms (48 h, SZ vs M3, reading time 48 h), 0.497 µg/mL (≈ 1.18 µM). Further, the “mice with generalized pulmonary edema and congestion” value with Swiss mice [1] was determined as 80%. Besides, in the data set with Swiss mice [1], the “signs of intoxication in the central nervous system (convulsions and Straub tail)” value is on record as “evident signs of intoxication in the central nervous system”. For the same molecule, the LD0 in the data set on Swiss mice [1] (ip) stood at 423 mg/kg. In the data set “in vivo”, this molecule yielded an LD50 of 640 mg/kg.
